Common to all, as to assay: Herbicidal activity, post-emergence stem and leaf spray in greenhouse
Assay type in all cases: in vivo
What all share (conditions): Post-emergence treatment

Test [1] relates to Setaria glauca (L.) Beauv. From the text: (§1) Seeds of broadleaf weeds (Zinnia elegans Jacq. and Abutilon theophrasti Medic.) or grass weeds (Setaria glauca (L.) Beauv. and Echinochloa crusgalli (L.) Beauv.) were respectively sown in a paper cup having a diameter of 7 cm and containing nutrient soil. After sowing, the seeds were covered with 1 cm of soil, the soil was pressed and watered, and then the seeds were cultivated in a greenhouse according to a conventional method, and stems and leaves were sprayed after 2-3 leaf stage of the weeds.
(§2) The compounds of the present invention were dissolved in acetone, and then diluted with 0.1% aqueous solution of Tween 80 to form the test liquid. According to the design dose of the test, spray treatment was carried out by track sprayer (Engineer Research Ltd., pressure 1.95 kg/cm^2, volume 500 L/hm^2, track speed 1.48 km/h). The test was repeated for three times. The test material was treated and then placed in an operation hall. The medicinal liquid was naturally dried in the shade, and then was placed in a greenhouse and managed according to the conventional method. The response of the weeds to the drug was visually observed and recorded. After treatment, the state of growth of the respective weeds were visually observed regularly to determine the growth inhibition rate (%) in accordance with the following evaluation standard.
(§3) Growth inhibition rate (%): 0=no discernible action: 100=all weeds dead or not emerged.

Test [2] has as its system Zinnia elegans Jacq.
Text: as §1, §2, §3

Test [3] concerns Abutilon theophrasti Medic.
Text: as §1, §2, §3

[4] abbreviates: dose 37.5 g a.i./hm^2, Table 3 parallel test.
The mark [5] stands for this setting: dose 75 g a.i./hm^2, Table 3 parallel test.

On to `CCn1nc(C(=O)Oc2c(C(=O)c3ccc(S(C)(=O)=O)c(OCCOC)c3C)c(C)nn2C(C)C)cc1C` [Compound 1-34], for which the “growth inhibition rate %” value stood at 65% in test [1] (dose 37.5 g a.i./hm^2, Table 2); 100% in test [1] (dose 150 g a.i./hm^2, Table 2); 100% in test [1] (dose 600 g a.i./hm^2, Table 2).
Turning to `CCn1nc(C)cc1C(=O)Oc1c(C(=O)c2ccc(S(C)(=O)=O)c(OCCOC)c2C)c(C)nn1C` [Compound 1-140], the “growth inhibition rate %” value in test [1] (dose 37.5 g a.i./hm^2, Table 2) is 80%; in test [1] (dose 150 g a.i./hm^2, Table 2), 100%; in test [1] (dose 600 g a.i./hm^2, Table 2), 100%.
Consider `CCn1nc(C(=O)Oc2c(C(=O)c3ccc(S(C)(=O)=O)c(OCCOC)c3C)cnn2CC)cc1C` [Compound 1-32], for which the “growth inhibition rate %” value in test [2] (setting [4]) is recorded as 100%; in test [2] (setting [5]), 100%; in test [3] (setting [4]), 100%; in test [3] (setting [5]), 100%; in test [1] (dose 37.5 g a.i./hm^2, Table 2), 90%; in test [1] (setting [4]), 90%. Also, the “growth inhibition rate %” value was 100% in test [1] (setting [5]); 100% in test [1] (dose 150 g a.i./hm^2, Table 2); 100% in test [1] (dose 600 g a.i./hm^2, Table 2).
For the compound `CCc1nn(C)c(OC(=O)c2cc(C)n(CC)n2)c1C(=O)c1ccc(S(C)(=O)=O)c(OCCOC)c1C` [Compound 1-36], the “growth inhibition rate %” value was 70% in test [1] (dose 37.5 g a.i./hm^2, Table 2); 100% in test [1] (dose 150 g a.i./hm^2, Table 2); 100% in test [1] (dose 600 g a.i./hm^2, Table 2).
As to `CCn1ncc(C(=O)c2ccc(S(C)(=O)=O)c(COCC(F)(F)F)c2Cl)c1OC(=O)c1cn(C)nc1C` [KC3, fenpyrazone, reference compound], the “growth inhibition rate %” value in test [2] (setting [4]) is listed as 40%; in test [2] (setting [5]), 50%; in test [3] (setting [4]), 30%; in test [3] (setting [5]), 95%; in test [1] (setting [4]) it was 60%; in test [1] (setting [5]), 70%.
For `CCOCCOc1c(S(C)(=O)=O)ccc(C(=O)c2c(C)nn(C)c2OC(=O)c2cc(C)n(CC)n2)c1C` [Compound 1-44], the “growth inhibition rate %” value amounted to 70% in test [1] (dose 37.5 g a.i./hm^2, Table 2); 100% in test [1] (dose 150 g a.i./hm^2, Table 2); 100% in test [1] (dose 600 g a.i./hm^2, Table 2).
Turning to `CCn1nc(C(=O)Oc2c(C(=O)c3ccc(S(C)(=O)=O)c(OCC4CC4)c3C)c(C)nn2C)cc1C` [Compound 1-20], the “growth inhibition rate %” value in test [1] (dose 37.5 g a.i./hm^2, Table 2) amounted to 65%; in test [1] (dose 150 g a.i./hm^2, Table 2), 100%; in test [1] (dose 600 g a.i./hm^2, Table 2) it was 100%.
As to `C=CCOc1c(S(C)(=O)=O)ccc(C(=O)c2c(C)nn(C)c2OC(=O)c2cc(C)n(CC)n2)c1C` [Compound 1-26], the “growth inhibition rate %” value came out at 75% in test [1] (dose 37.5 g a.i./hm^2, Table 2); 100% in test [1] (dose 150 g a.i./hm^2, Table 2); 100% in test [1] (dose 600 g a.i./hm^2, Table 2).
Take `CCn1nc(C(=O)Oc2c(C(=O)c3ccc(S(C)(=O)=O)c(OCCOC)c3C)c(C)nn2C)cc1C` [Compound 1-33]: the “growth inhibition rate %” value in test [1] (dose 37.5 g a.i./hm^2, Table 2) turned out to be 70%; in test [1] (dose 150 g a.i./hm^2, Table 2), 100%; in test [1] (dose 600 g a.i./hm^2, Table 2), 100%.
Consider `CCn1nc(C)cc1C(=O)Oc1c(C(=O)c2ccc(S(C)(=O)=O)c(OCCOC)c2C)cnn1CC` [Compound 1-139], for which the “growth inhibition rate %” value in test [1] (dose 37.5 g a.i./hm^2, Table 2) is reported as 80%; in test [1] (dose 150 g a.i./hm^2, Table 2), 100%; in test [1] (dose 600 g a.i./hm^2, Table 2), 100%.
In the case of `CCn1nc(C(=O)Oc2c(C(=O)c3ccc(S(C)(=O)=O)c(OCCOC)c3C)c(C)nn2CC)cc1C` [Compound 1-37], the “growth inhibition rate %” value in test [1] (dose 37.5 g a.i./hm^2, Table 2) was 100%; in test [1] (dose 150 g a.i./hm^2, Table 2) it was 100%; in test [1] (dose 600 g a.i./hm^2, Table 2) it was 100%.

(Values after patent publication US20230138225A1, “PYRAZOLE CARBOXYLATE ESTER COMPOUND AND USE THEREOF” (SHENYANG SINOCHEM AGROCHEMICALS R&D CO., LTD., priority 2020, published 2023).)
